These results are taken from patent US4898859A, “2-Oxa-isocephem compounds and compositions containing same” (Otsuka Pharmaceutical Co., Ltd., priority 1987, dated 1990).

Each structure is given as a SMILES string. Values after ≈ are worked out from the molar mass of the structure shown.

What all share (format): cell-based
The test system of assay [1] is E. coli NIHJ. Nature of the assay: antimicrobial activity in vitro, MIC by agar plate dilution method, E. coli NIHJ. Particulars: Escherichia coli, inoculum 1×10^6 cells/ml, read-out: minimal inhibitory concentration (MIC). The procedure:
(§1) In order to investigate the in vitro activity of the under-mentioned compounds against various bacteria, the minimal inhibitory concentration (MIC) values were determined by the agar plate dilution method [see Chemotherapy, 22, 1126-1128 (1974)].
(§2) Each test inoculum was adjusted to 1×10^6 cells/ml (O.D., 600 mμ: 0.07-0.16).

Assay [2] relates to S. marcescens IFO-12648. Nature of the assay: antimicrobial activity in vitro, MIC by agar plate dilution method, S. marcescens IFO-12648. The following applies: Serratia marcescens, IFO12648, inoculum 1×10^6 cells/ml, read-out: minimal inhibitory concentration (MIC). The procedure:
as §1, §2

Assay [3] concerns M. morganii ATCC-25830. Nature of the assay: antimicrobial activity in vitro, MIC by agar plate dilution method, M. morganii ATCC-25830. The following applies: Morganella morganii, ATCC25830, inoculum 1×10^6 cells/ml, read-out: minimal inhibitory concentration (MIC). As to the method: as §1, §2
Assay [4] concerns S. aureus FDA-209-p. Nature of the assay: antimicrobial activity in vitro, MIC by agar plate dilution method, S. aureus FDA-209-p. The following applies: Staphylococcus aureus, FDA209, inoculum 1×10^6 cells/ml, read-out: minimal inhibitory concentration (MIC). The procedure: as §1, §2
The test system of assay [5] is K. pneumoniae NCTC-9632. Nature of the assay: antimicrobial activity in vitro, MIC by agar plate dilution method, K. pneumoniae NCTC-9632. Particulars: Klebsiella pneumoniae, NCTC9632, inoculum 1×10^6 cells/ml, read-out: minimal inhibitory concentration (MIC). The procedure:
as §1, §2

In assay [6] the test system is P. mirabilis 1287. Nature of the assay: antimicrobial activity in vitro, MIC by agar plate dilution method, P. mirabilis 1287. Particulars: Proteus mirabilis, inoculum 1×10^6 cells/ml, read-out: minimal inhibitory concentration (MIC). The procedure: as §1, §2
For assay [7], the system named is E. coli No. 29. Nature of the assay: antimicrobial activity in vitro, MIC by agar plate dilution method, E. coli No. 29. Particulars: Escherichia coli, inoculum 1×10^6 cells/ml, read-out: minimal inhibitory concentration (MIC). The procedure:
as §1, §2

The test system of assay [8] is P. aeruginosa NCTC-10490. Nature of the assay: antimicrobial activity in vitro, MIC by agar plate dilution method, P. aeruginosa NCTC-10490. Particulars: Pseudomonas aeruginosa, NCTC10490, inoculum 1×10^6 cells/ml, read-out: minimal inhibitory concentration (MIC). As to the method:
as §1, §2

Turning to `CO/N=C(\C(=O)N[C@@H]1C(=O)N2C(C(=O)[O-])=C(CSc3cc[n+](CCF)cc3)OC[C@H]12)c1csc(N)n1` [No. 14, (6S,7S)-7-[2-(2-Aminothiazol-4-yl)-2-methoxyiminoacetamido]-3-[[1-(2-fluoroethyl)-4-pyridinio]thiomethyl]-Δ^3 -O-2-isocephem-4-carboxylate (syn-isomer)], the MIC is ≤ 0.025 µg/mL in assay [1]; 0.1 µg/mL (≈ 0.186 µM) in assay [2]; ≤ 0.025 µg/mL in assay [3]; 0.2 µg/mL (≈ 0.373 µM) in assay [4]; ≤ 0.025 µg/mL in assay [5]; ≤ 0.025 µg/mL in assay [6]. Also, the results for the MIC in assay [7] and in assay [8] were ≤ 0.025 µg/mL and 1.56 µg/mL (≈ 2.91 µM), respectively.
Turning to `CO/N=C(\C(=O)N[C@@H]1C(=O)N2C(C(=O)[O-])=C(CSc3cc[n+](CC(=O)N4CCCC4)cc3)OC[C@H]12)c1csc(N)n1` [No. 2, (6S,7S)-7-[2-(2-Aminothiazol-4-yl)-2-methoxyiminoacetamido]-3-[[1-(1-pyrrolidinylcarbonylmethyl)-4pyridinio]thiomethyl]-Δ^3 -O-2-isocephem-4-carboxylate (syn-isomer)], the MIC in assay [1] is ≤ 0.025 µg/mL; in assay [2], 0.1 µg/mL (≈ 0.166 µM); in assay [3] it was ≤ 0.025 µg/mL; in assay [4] it was 0.2 µg/mL (≈ 0.332 µM); in assay [5] it was ≤ 0.025 µg/mL; in assay [6], ≤ 0.025 µg/mL. Besides, the MIC is ≤ 0.025 µg/mL in assay [7] and 1.56 µg/mL (≈ 2.59 µM) in assay [8].
